Source: patent US20150052630A1, “Methods and Compositions for Obtaining Useful Plant Traits” (Board of Regents of the University of Nebraska, priority 2013, published 2015)
“Also recorded” adds a separate entry of the source.

System: Arabidopsis seedlings (wild type Col-0, epi-line, Col-0/msh1 graft progeny)
Assay: 5-Azacytidine treatment and root length assay (methylation inhibition assay)
Type: in vivo
Settings: 50 μM 5-azacytidine, half-strength MS plates, seedlings transferred 3 days post-germination, root lengths measured at ten days
Description: FIG. 27A-C. a, Distribution of msh1 SNPs and indels versus Col-0 across the genome. Each dot represents the number of SNPs and indels found in a window of 50 kbp. Note that the Y-axis has been synchronized with the maximum number found on chr4 to enable comparisons between chromosomes. The region 7,800,000-9,850,0000 bp on chr4, a likely introgressed segment from Ler, contains 8582 of the total 12,771 SNPs and indels. […] Paired-end genome-wide sequencing, alignment and de novo partial assembly of the chm1-1 genome produced 14,416 contigs (n50=40,761 bp) containing 118.5 Mbp; mapping these contigs against Col-0 covers 72 Mbp. Alignment of paired-end reads to the Col-0 public reference sequence produced 95% alignment and identified 12,771 SNPs and indels, with the one 2-Mbp interval, on chromosome 4, accounting for 8,582 and the second on Chromosome 3 accounting for 2200. […]
Treatment with azacytidine can be used to nullify methylation effects^42. […] Ten days after moving to growth chamber, plates were scanned and root lengths were measured using ImageJ. […]

In the case of Nc1ncn([C@@H]2O[C@H](CO)[C@@H](O)[C@H]2O)c(=O)n1 [5-azacytidine], the “effect on enhanced epi-line root length” value is reported as “restoration of epi-F3 seedlings to wild type growth levels; also recorded: abolished”.
